Experimental data taken from patent publication US9340530B2, “Preparation and use of bicyclic himbacine derivatives as PAR-1 receptor antagonists” (Merck, Sharp & Dohme Corp., priority 2012, dated 2016).

How the values were obtained:
PAR1 = PAR1 (Homo sapiens (Human), UniProt P25116); experiment: Par-1 FLIPR assay (calcium, HEK 293 cells, PAR1 activating peptide); type: cell-based; settings: PAR1 selective receptor-activating peptide at 80% activation
Protocol: HEK 293 Cells were grown in media containing DMEM, 10% FBS pen/strep/L-Glutamine and non-essential amino acids. The cells were plated in 384-well PDL coated plates at 12000 cells/well and incubated overnight at 37° C./5% CO2. Media was then removed from the cells, which were then incubated with buffer (Hank's containing HEPES and Chaps) containing FLIPR calcium-5 dye, made with buffer containing probenecid, for 60 minutes at 37° C. Varying concentrations of compound in a final concentration of 5% DMSO were then added to the cells and incubated at 25° C. for 30 minutes. […] The FLIPR reads at an excitation wavelength of 480 nm and an emission wavelength of 535 nm, and performs 60 scans over a 1-2 min reading time. The data were analyzed by taking the peak signal over a portion of the range of the 60 scans and dividing this signal by the minimum signal for that same range.

[1] = biological target: thrombin receptor (PAR-1 receptor) (Homo sapiens (Human), UniProt P25116); experiment: High throughput thrombin receptor radioligand binding assay ([3H]haTRAP, platelet membranes); settings: [3H]haTRAP binding to platelet membranes
Protocol: The following binding assays were used to determine the ability of the inventive compounds to inhibit the PAR-1 receptor.
A(pF-F)R(ChA)(hR)(I2—Y)—NH2 (1.03 mg) and 10% Pd/C (5.07 mg) were suspended in DMF (250 μl) and diisopropylethylamine (10 μL). The vessel was attached to the tritium line, frozen in liquid nitrogen and evacuated. Tritium gas (342 mCi) was then added to the flask, which was stirred at room temperature for 2 hours. At the completion of the reaction, the excess tritium was removed and the reacted peptide solution was diluted with DMF (0.5 ml) and filtered to remove the catalyst. The collected DMF solution of the crude peptide was diluted with water and freeze dried to remove the labile tritium. The solid peptide was redissolved in water and the freeze drying process repeated. The tritiated peptide ([^3H]haTRAP) was dissolved in 0.5 ml of 0.1% aqueous TFA and purified by HPLC using the following conditions: column, Vydac™ C18, 25 cm×9.4 mm I.D.; mobile phase, (A) 0.1% TFA in water, (B) 0.1% TFA in CH3CN; gradient, (A/B) from 100/0 to 40/60 over 30 min; flow rate, 5 ml/min; detection, UV at 215 nm. The radiochemical purity of [^3H]haTRAP was 99% as analyzed by HPLC. A batch of 14.9 mCi at a specific activity of 18.4 Ci/mmol was obtained.
Platelet membranes were prepared using a modification of the method of Natarajan et al. (Natarajan et al, Int. J. Peptide Protein Res. 45:145-151 (1995)) from 20 units of platelet concentrates obtained from the North Jersey Blood Center (East Orange, N.J.) within 48 hours of collection. All steps were carried out at 4° C. under approved biohazard safety conditions. Platelets were centrifuged at 100×g for 20 minutes at 4° C. to remove red cells. The supernatants were decanted and centrifuged at 3000×g for 15 minutes to pellet platelets. Platelets were re-suspended in 10 mM Tris-HCl, pH 7.5, 150 mM NaCl, 5 mM EDTA, to a total volume of 200 ml and centrifuged at 4400×G for 10 minutes. This step was repeated two additional times. […] Protein concentration was determined by a Lowry assay (Lowry et al., J. Biol. Chem., 193:265-275 (1951)). […]

Sequence of PAR1 (P25116 22-425): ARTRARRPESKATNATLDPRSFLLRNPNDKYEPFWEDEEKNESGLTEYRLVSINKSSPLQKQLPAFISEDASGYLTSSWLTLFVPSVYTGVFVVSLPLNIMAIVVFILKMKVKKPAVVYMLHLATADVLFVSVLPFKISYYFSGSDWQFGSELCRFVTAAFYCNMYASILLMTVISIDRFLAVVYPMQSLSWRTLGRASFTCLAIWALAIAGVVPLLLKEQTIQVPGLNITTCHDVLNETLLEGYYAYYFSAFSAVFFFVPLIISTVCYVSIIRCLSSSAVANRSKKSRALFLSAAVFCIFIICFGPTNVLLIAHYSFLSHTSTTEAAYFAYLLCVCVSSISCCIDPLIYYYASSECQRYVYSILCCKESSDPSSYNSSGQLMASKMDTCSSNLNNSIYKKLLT
Sequence of thrombin receptor (PAR-1 receptor) (P25116 22-425): as above

IC50 (PAR1) [nM] | Ki [1] [nM] | SMILES
8.1 | 3 | C[C@H]1OC(=O)[C@]2(O)CC(F)(F)[C@@H](C)[C@H](/C=C/c3ccc(-c4cccc(F)c4)cn3)[C@H]12 [Example 10]
17 | 3 | C[C@H]1OC(=O)[C@]2(C(=O)NCCO)CC(F)(F)[C@@H](C)[C@H](/C=C/c3ccc(-c4cccc(F)c4)cn3)[C@H]12 [Example 13]
33.3 |  | Cc1oncc1C(=O)N[C@@]12CC(F)(F)[C@@H](C)[C@H](/C=C/c3ccc(-c4ccccc4C#N)cn3)[C@@H]1[C@@H](C)OC2=O [Example 61]
2 |  | C[C@H]1OC(=O)[C@]2(O)CC(F)(F)[C@@H](C)[C@H](/C=C/c3ccc(-c4ccccc4C#N)cn3)[C@H]12 [Example 8]
3 |  | C[C@H]1OC(=O)[C@]2(NC(=O)c3cccc(F)c3)CC(F)(F)[C@@H](C)[C@H](/C=C/c3ccc(-c4ccccc4C#N)cn3)[C@H]12 [Example 58]
3.7 |  | CC1[C@H](/C=C/c2ccc(-c3ccccc3C#N)cn2)C2[C@@H](C)OC(=O)[C@@]2(NC(=O)c2ccn(C)n2)CC1(F)F (stereo partly shown) [Example 67]
1.9 |  | CC1[C@H](/C=C/c2ccc(-c3ccccc3C#N)cn2)C2[C@@H](C)OC(=O)[C@]2(C(O)c2cocn2)CC1(F)F (stereo partly shown) [Example 22a]
7.1 |  | C[C@H]1OC(=O)[C@]2(NC(=O)NC3CCC3)CC(F)(F)[C@@H](C)[C@H](/C=C/c3ccc(-c4ccccc4C#N)cn3)[C@H]12 [Example 54]

SMILES | IC50 (PAR1) [nM] | Ki [1] [nM]
C[C@H]1OC(=O)C2CC(F)(F)[C@@H](C)[C@H](/C=C/c3ccc(-c4cccc(F)c4)cn3)C21 (stereo partly shown) [Example 2] | 5.01 | 3
CC1[C@H](/C=C/c2ccc(-c3ccccc3C#N)cn2)C2[C@@H](C)OC(=O)[C@]2(C(O)c2cscn2)CC1(F)F (stereo partly shown) [Example 20a] | 0.9 | 
